The structures appear in SMILES notation.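 Where inhibition never reached the appropriate level, the endpoint shown equals the highest concentration tested. Otherwise, values were interpolated linearly from a five-concentration, 48-hour dose response in 96-well plates. GI50 marks 50% less growth. Definition used: TGI = concentration required for complete inhibition of growth.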 Bounds are passed on as bounds.

Holding throughout (assay): NCI anticancer screen, dose series, 48 h
Experiment [1] deals with CAKI-1 renal.
The test system of experiment [2] is MALME-3M melanoma.
Experiment [3] concerns A549 NSCLC.
The subject of experiment [4] is COLO 205 colon.
Experiment [5] relates to MOLT-4 leukemia.
Experiment [6] has as its system HOP-62 NSCLC.
Experiment [7] deals with OVCAR-5 ovarian.
The test system of experiment [8] is SF-295 CNS.
Experiment [9] concerns K-562 leukemia.
For experiment [10], the system named is HOP-92 NSCLC.

In the case of `CC(=O)NC(CCc1ccc(Cl)c(Cl)c1)c1cccc(O)c(=O)c1` (stereo unspecified), the GI50 in [1] was 0.195 µM; in experiment [2], 1.45 µM; in [3], 0.527 µM; in [4] it was 0.363 µM; in experiment [5] it was 0.74 µM; in [6] it was 0.393 µM. Besides, the GI50 was 1.58 µM in experiment [7], 0.399 µM in [8], 0.653 µM in experiment [9] and 1.93 µM in experiment [10]. The TGI in experiment [1] amounted to 11.9 µM; in experiment [2] it was 7.12 µM; in [3], 11.5 µM; in [4], 18.6 µM; in experiment [5], 14.4 µM; in [6] it was 12.2 µM. For the same compound, the TGI in experiment [7] stood at 21.8 µM; in experiment [8] it was 10 µM; in experiment [9], 29.1 µM; in [10], 15.7 µM.

Consider `C/C(=C\CNc1ncnc2c1ncn2C1CCCCO1)COP(=O)(O)O` (stereo unspecified), for which the TGI in [1], in experiment [2], in [3], in experiment [4], in experiment [5] and in [6] was over 100 µM in each case. Further, the TGI in experiment [7], in [8], in [9] and in [10] was over 100 µM in each case.

Turning to `CCN(CC)CCOc1ccc(/C(=C(\C)Cc2ccc(OC)cc2)c2ccc(O)cc2)cc1`, the GI50 in [1] is 1.65 µM; in [2], 1.73 µM; in [3], 1.83 µM; in experiment [4], 1.71 µM; in experiment [5], 1.5 µM; in experiment [6], 1.89 µM. Also, the GI50 in [7] is 2.36 µM; in [8] it was 1.69 µM; in [9], 1.37 µM; in experiment [10], 0.588 µM. The TGI in experiment [1] is 3.21 µM; in experiment [2], 3.28 µM; in [3], 3.56 µM; in experiment [4] it was 3.42 µM; in experiment [5], 3.52 µM; in experiment [6], 3.81 µM. Besides, the TGI in experiment [7] was 6.79 µM; in experiment [8], 3.3 µM; in [9], 3.99 µM; in experiment [10] it was 2.61 µM.

Take `N=C1C(c2nc3ccccc3c(=O)[nH]2)=C(O)CN1c1cccc(Cl)c1`: the GI50 is 3.11 µM in experiment [1]; 1.03 µM in [2]; 5.36 µM in experiment [3]; 5.07 µM in experiment [4]; 4.51 µM in experiment [5]; 4.7 µM in experiment [6]. Moreover, the GI50 in experiment [7] is over 30.8 µM; in experiment [8], 3.23 µM; in experiment [9], 1.39 µM; in experiment [10], over 100 µM. Moreover, the TGI was over 29.3 µM in [1]; 10.7 µM in experiment [2]; over 100 µM in experiment [3]; over 100 µM in [4]; over 100 µM in experiment [5]; over 100 µM in experiment [6]. The TGI is over 100 µM in [7], 17.8 µM in [8], over 100 µM in experiment [9] and over 100 µM in [10].

As to `C=CCc1cc(O)ccc1O`, the GI50 in [1] is 23.9 µM; in experiment [2] it was 23.6 µM; in experiment [3] it was over 100 µM; in [4], over 100 µM; in experiment [5] it was 5.87 µM; in [6], 29.8 µM. The GI50 in [7] is 26.7 µM; in experiment [8], 49.5 µM; in [9] it was 17.7 µM; in [10] it was 42.4 µM. The TGI was over 100 µM in [1]; over 100 µM in [2]; over 100 µM in [3]; over 100 µM in experiment [4]; 68.9 µM in experiment [5]; over 100 µM in experiment [6]. The TGI in [7], in [8], in experiment [9] and in [10] was over 100 µM in each case.

As to `[pH]1p2[pH]p3p1p3[pH]2.c1cc[c]([Ge]([c]2ccccc2)[c]2ccccc2)cc1.c1cc[c]([Ge]([c]2ccccc2)[c]2ccccc2)cc1.c1cc[c]([Ge]([c]2ccccc2)[c]2ccccc2)cc1`, the GI50 in experiment [1] was 20.6 µM; in [2] it was 14.3 µM; in experiment [3], 25.4 µM; in [4], 12.1 µM; in experiment [5], 16.3 µM; in experiment [6] it was 28.7 µM. Also, the GI50 in [7] was 18.2 µM; in experiment [8], 21.2 µM; in [9] it was 16.4 µM; in experiment [10], 12.8 µM. In addition, the TGI is 44.8 µM in experiment [1]; 28.1 µM in experiment [2]; over 100 µM in experiment [3]; 26.2 µM in experiment [4]; over 100 µM in experiment [5]; 66.1 µM in [6]. In addition, the TGI came out at 34.1 µM in [7], 42.9 µM in experiment [8], 43.5 µM in experiment [9] and 29.8 µM in [10].

Take `CC(=O)[CH-]C(=O)c1ccccc1.CC(=O)[CH-]C(=O)c1ccccc1.CC(=O)[CH-]C(=O)c1ccccc1.[Cl-].[Hf+4]`: the GI50 in experiment [1] was 20.1 µM; in experiment [2], 14.8 µM; in experiment [3], 46.4 µM; in [4], 34 µM; in experiment [5], 15.4 µM; in [6] it was 51.2 µM. For the same compound, the GI50 in [7] was 22.8 µM; in experiment [8], 19.8 µM; in [9] it was 37.6 µM; in [10] it was 18.9 µM. Moreover, the TGI in [1] was 62.6 µM; in experiment [2] it was 39.8 µM; in experiment [3], over 100 µM; in experiment [4], over 100 µM; in [5], over 100 µM; in experiment [6], over 100 µM. Moreover, the TGI in [7] is 71.8 µM; in [8], over 100 µM; in [9], over 100 µM; in [10], 50.4 µM.

`CC(C)(Oc1cccc(N2CCC[C@@H](C(=O)N(Cc3ccc(-c4cn[nH]c4)cc3)C3CC3)C2)c1)C(=O)N1CCNCC1`: the GI50 in experiment [1] was 8.11 µM; in [2], 11.8 µM; in experiment [3], 14.1 µM; in experiment [4], 5.91 µM; in experiment [5] it was 12.1 µM; in [6], 13.3 µM. In addition, the GI50 is 16.6 µM in experiment [7], 12.5 µM in experiment [8], 3.5 µM in experiment [9] and 9.9 µM in [10]. The TGI in experiment [1] turned out to be 21.9 µM; in experiment [2], 24.5 µM; in experiment [3], 32.2 µM; in [4] it was 20.1 µM; in experiment [5] it was 55.8 µM; in experiment [6], 28.5 µM. The TGI in [7] was 32.2 µM; in [8] it was 26 µM; in experiment [9], 18.4 µM; in experiment [10] it was 23.8 µM.

In the case of `CCNCCS(=O)(=O)NC[C@@]1(c2ccccc2)SC(NC(=O)C(C)(C)C)=NN1C(=O)C(C)(C)C`, the GI50 in experiment [1] is 0.694 µM; in experiment [2], 10.6 µM; in experiment [3] it was under 0.01 µM; in experiment [4], under 0.01 µM; in [5], under 0.0139 µM; in experiment [6], 0.0353 µM. Moreover, the GI50 is 0.138 µM in experiment [7], under 0.01 µM in experiment [8] and under 0.01 µM in experiment [9]. Also, the TGI in experiment [1] is over 100 µM; in experiment [2], 30.2 µM; in experiment [3] it was over 100 µM; in experiment [4] it was 12.1 µM; in experiment [5], over 100 µM; in experiment [6], over 100 µM. Also, the TGI is over 100 µM in [7], 1.16 µM in experiment [8], over 100 µM in experiment [9] and over 82.1 µM in [10].

With `CCP(C)(=O)CC`, the TGI in [1], in [2], in experiment [3], in experiment [4], in [5] and in [6] was over 100 µM in each case. In addition, the TGI in [7], in [8], in experiment [9] and in [10] was over 100 µM each time.

For `Oc1ccc(/C=N/NC(=S)Nc2ccccc2)nc1`, the GI50 in experiment [1] is 0.667 µM; in [2], 2.19 µM; in experiment [3] it was 2.33 µM; in [4], 3.31 µM; in experiment [5] it was 3.26 µM; in experiment [6] it was 0.766 µM. In addition, the GI50 in [7] was 7.09 µM; in experiment [9], 3.72 µM; in experiment [10], 0.439 µM. The TGI in experiment [1] was over 100 µM; in [2], 30.6 µM; in experiment [3], 26.3 µM; in experiment [4] it was over 100 µM; in [5], over 100 µM; in experiment [6], 7.29 µM. The TGI in experiment [7] is over 100 µM; in experiment [9], over 100 µM; in [10], 6.92 µM.

For the compound `CCN1CCCCCCCCCC(=N/O)/C(=N\O)C1`, the TGI in experiment [1], in experiment [2], in [3], in experiment [5], in experiment [6] and in [7] was over 100 µM each time. The TGI in experiment [8], in [9] and in experiment [10] was over 100 µM throughout.
